Measured values as given in patent US10188743B2, “Cytisine-linked isoflavonoid antineoplastic agents for the treatment of cancer” (UNIVERSITY OF KENTUCKY RESEARCH FOUNDATION, priority 2016, dated 2019).

Key:
AMPK = AMPK activation (levels of phosphorylated AMPK, Western blotting); assay type: cell-based
Experimental: (§1) Biochemistry. Western blotting: Cells were lysed in the appropriate volume of lysis buffer (50 mM HEPES, 100 mM NaCl, 2 mM EDTA, 1% glycerol, 50 mM NaF, 1 mM Na3VO4, 1% Triton X-100, with protease inhibitors). The following antibodies were used: HSD17B4 (GeneTex, GTX103864), AMPK (Cell Signaling, 2532), pAMPK (Cell Signaling, 2535), ACC (Cell Signaling, 3676), pACC (Cell Signaling, 11818), p^70 (Cell Signaling, 2708), p-p^70 (Cell Signaling, 9914), S6 (Cell Signaling, 2217), pS6 (Cell Signaling, 4858), MCCA (GeneTex, GTX110062), tubulin (Hybridoma Bank, E7), Actin (Sigma, A1978), His-tag (BD Pharmingen, 552564).

p70 = p70 phosphorylation, mTor pathway (Western blotting); assay type: cell-based; conditions: PC-3 and LS174T cells
Experimental: as §1

S6 = S6 phosphorylation, mTor pathway (Western blotting); assay type: cell-based; conditions: PC-3 and LS174T cells
Experimental: as §1

[1] = molecular target: T1, hydratase activity of HSD17B4 (Homo sapiens, UniProt P51659); assay: HSD17B4 hydratase assay (crotonoyl CoA substrate); assay type: biochemical
T1 construct: His-tag; made in house; host or cells: E. coli BL21 (pET28)
T1 sequence (P51659 1-736): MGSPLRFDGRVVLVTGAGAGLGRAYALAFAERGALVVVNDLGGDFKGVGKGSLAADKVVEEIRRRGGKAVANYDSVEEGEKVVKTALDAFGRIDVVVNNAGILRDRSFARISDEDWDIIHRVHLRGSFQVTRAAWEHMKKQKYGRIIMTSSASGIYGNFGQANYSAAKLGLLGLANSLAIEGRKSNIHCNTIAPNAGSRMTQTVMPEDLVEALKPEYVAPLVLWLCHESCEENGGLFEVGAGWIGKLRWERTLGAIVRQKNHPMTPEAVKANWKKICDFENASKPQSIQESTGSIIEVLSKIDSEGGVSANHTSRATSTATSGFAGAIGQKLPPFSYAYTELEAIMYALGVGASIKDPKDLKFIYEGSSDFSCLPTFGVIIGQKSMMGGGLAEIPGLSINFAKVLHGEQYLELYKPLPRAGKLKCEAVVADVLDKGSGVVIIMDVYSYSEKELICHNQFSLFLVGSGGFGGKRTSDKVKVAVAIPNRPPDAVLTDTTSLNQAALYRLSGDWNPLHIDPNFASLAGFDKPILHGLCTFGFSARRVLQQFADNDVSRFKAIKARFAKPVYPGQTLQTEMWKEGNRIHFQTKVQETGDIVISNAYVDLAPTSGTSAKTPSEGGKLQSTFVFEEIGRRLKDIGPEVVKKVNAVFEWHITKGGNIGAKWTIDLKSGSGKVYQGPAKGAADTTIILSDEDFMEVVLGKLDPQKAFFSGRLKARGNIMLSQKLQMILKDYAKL
Description: We acquired further evidence along these lines through studies using the N-terminal α,β-dehydrogenase and C-terminal hydratase fragments of HSD17B4 as well as the full-length protein. We evaluated the α,β-dehydrogenase activity using DL-3-hydroxylbutyryl-CoA as a substrate and the conversion of NAD^+ to NADH as a readout. We concomitantly measured the hydratase activity using crotonoyl-CoA as a substrate and the diminished ultraviolet absorption of the α,β-unsaturated thioester chromophore as readout. The full-length protein, as expected, had both enzyme activities (FIGS. 7A and 7B). The C-terminal-truncated fragments N318 and N634 but not the N-terminal-truncation fragment C919 had α,β-dehydrogenase activity (FIG. 7A). The C-terminal fragment N634 and the N-terminal fragment C919, but not the C-terminal fragment N318, had hydratase activity (FIG. 7B), as summarized in FIG. 3A.
The enzymatic activities of HSD17B4 were analyzed using the method reported by Novikov et al. (J. Biol. Chem., 1994, 269, 27125). […] The reaction was quantified by measuring the fluorescent product NADH (excitation: 340 nm; emission 460 nm). […] The reaction was quantified by measuring the remaining substrate using absorbance at 280 nm.

[2] = tested on: LS174T colon cancer cells; assay: Fatty acid analysis of treated cells; assay type: cell-based
Experimental: Fatty acid analysis: Free and total fatty acids (after saponification) were prepared as reported previously (Spencer et al. Diabetes 62(5):1709-1717) converted to N-(4-aminomethylphenyl)pyridinium derivatives (Bollinger et al. J Lipid Res 54(12):3523-3530) and quantitated HPLC electrospray ionization tandem mass spectrometry with quantitation accomplished using exogenously added heptadecanoic acid as a recovery standard and reference to offline calibrations generated using authentic fatty acid standards.

DLD1 colon cancer cells = assay: Seahorse XF assay; assay type: cell-based
Description: (§2) We further characterized the effects of cytisine-linked isoflavonoid 10c on energy metabolism using a Seahorse XF assay (FIG. 4D-F) that measured oxygen consumption rate (OCR), which was an indicator of mitochondrial respiration, and measured extracellular acidification rate (ECAR), which was largely the result of glycolysis. […] Similar results were found in DLD-1 colon cancer cells and PC-3 prostate cancer cells (FIGS. 8 and 9). These OCR findings were consistent with the prior evaluation of these cytisine-linked isoflavonoids that targeted the hydratase activity in HSD17B4, inhibited VLCFA beta-oxidation, depressed acetyl CoA generation, decreased the ratio of ATP/AMP, and triggered AMPK activation (FIG. 5).
(§3) Seahorse assay: 3×10^4 cells were seeded in XF96 Cell Culture microplate (80 μL of 3.75×10^5 cells/m:). On the next day, cells were treated with DMSO or inhibitors and analyzed using the Seahorse analyzer in Redox Metabolism Shared Resource Facility (RM SRF) at the Markey Cancer Center.

[3] = tested on: PC-3 prostate cancer cells; assay: Seahorse XF assay; assay type: cell-based; conditions: PC-3 cells
Description: as §2, §3

For `O=c1c(-c2ccc(Cl)cc2)coc2cc(OCCN3C[C@@H]4C[C@@H](C3)c3cccc(=O)n3C4)ccc12` [Compound 10c, (1 S,5S)-3-(2-((3-(4-chlorophenyl)-4-oxo-4H-chromen-7-yl)oxy)ethyl)-3,4,5,6-tetrahydro-1H-1,5-methanopyrido[1,2-a][1,5]diazocin-8(2H)-one], the AMPK activation (AMPK; LS174T colon cancer cells) was “activated AMPK”, the AMPK activation (AMPK; PC-3 prostate cancer cells) was “activated AMPK” and the “phosphorylation of p70” value (p70) was “inhibited the phosphorylation”. The “phosphorylation of S6” value (S6) was “inhibited the phosphorylation”, the “effect on hydratase activity” value [1] was “significantly inhibited” and the fatty acid levels [2] was “reduced the levels of a number of fatty acids”. The ATP production (DLD1 colon cancer cells) was “reduced”, the respiration rate (DLD1 colon cancer cells) was “reduced respiration rate” and the respiration rate [3] was “reduced respiration rate”.
